Results published in US20120100990A1, “4 -AMINOPICOLINATES AND THEIR USE AS HERBICIDES” (SYNGENTA CROP PROTECTION LLC, priority 2009, published 2012).

How the values were obtained:
Format in all cases: in vivo
Setaria faberi (SETFA) [1] = assay: Pre-emergence biological efficacy, glasshouse pot test; details: 312 h, 1,000 g/ha, evaluated after 13 days, 100=total damage, 0=no damage, read-out: Percentage damage caused to weed species, pre-emergence, SETFA
Procedure, shortened: (§1)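 Damage was rated 13 days after treatment on a 0–100 scale, where 100 is total plant kill. Pots sown one day earlier were sprayed with 1000 or 250 g/ha test compound in aqueous acetone/water (50:50) containing 0.5% Tween 20, and grown at 24/16 °C with 14 h light, 65% humidity and twice-daily watering.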

[2] = test system: Alopecurus myosuroides (ALOMY); assay: as above; details: 312 h, 1,000 g/ha, evaluated after 13 days, 100=total damage, 0=no damage, read-out: Percentage damage caused to weed species, pre-emergence, ALOMY
Procedure, shortened: as §1

[3] = test system: Ipomea hederaceae (IPOHE); assay: as above; details: Ipomoea hederacea, 312 h, 1,000 g/ha, evaluated after 13 days, 100=total damage, 0=no damage, read-out: Percentage damage caused to weed species, pre-emergence, IPOHE
Procedure, shortened: as §1

[4] = test system: Amaranthus retroflexus (AMARE); assay: as above; details: 312 h, 1,000 g/ha, evaluated after 13 days, 100=total damage, 0=no damage, read-out: Percentage damage caused to weed species, pre-emergence, AMARE
Procedure, shortened: as §1

[5] = test system: Echinochloa crus-galli (ECHCG); assay: as above; details: 312 h, 1,000 g/ha, evaluated after 13 days, 100=total damage, 0=no damage, read-out: Percentage damage caused to weed species, pre-emergence, ECHCG
Procedure, shortened: as §1

Solanum nigrum (SOLNI) [6] = assay: as above; details: 312 h, 1,000 g/ha, evaluated after 13 days, 100=total damage, 0=no damage, read-out: Percentage damage caused to weed species, pre-emergence, SOLNI
Procedure, shortened: as §1

Setaria faberi (SETFA) [7] = assay: Post-emergence biological efficacy, glasshouse pot test; details: 312 h, 1,000 g/ha, evaluated after 13 days, 100=total damage, 0=no damage, read-out: Percentage damage caused to weed species, post-emergence, SETFA
Procedure, shortened: (§2)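 Visual damage ratings (100 total kill, 0 no effect) were taken 13 days after spraying. Plants had been grown 8 days from seed before a single application of 1000 or 250 g/ha in aqueous acetone (50:50) containing 0.5% Tween 20.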

[8] = test system: Alopecurus myosuroides (ALOMY); assay: as above; details: 312 h, 1,000 g/ha, evaluated after 13 days, 100=total damage, 0=no damage, read-out: Percentage damage caused to weed species, post-emergence, ALOMY
Procedure, shortened: as §2

[9] = test system: Ipomea hederaceae (IPOHE); assay: as above; details: Ipomoea hederacea, 312 h, 1,000 g/ha, evaluated after 13 days, 100=total damage, 0=no damage, read-out: Percentage damage caused to weed species, post-emergence, IPOHE
Procedure, shortened: as §2

[10] = test system: Amaranthus retroflexus (AMARE); assay: as above; details: 312 h, 1,000 g/ha, evaluated after 13 days, 100=total damage, 0=no damage, read-out: Percentage damage caused to weed species, post-emergence, AMARE
Procedure, shortened: as §2

[11] = test system: Echinochloa crus-galli (ECHCG); assay: as above; details: 312 h, 1,000 g/ha, evaluated after 13 days, 100=total damage, 0=no damage, read-out: Percentage damage caused to weed species, post-emergence, ECHCG
Procedure, shortened: as §2

Solanum nigrum (SOLNI) [12] = assay: as above; details: 312 h, 1,000 g/ha, evaluated after 13 days, 100=total damage, 0=no damage, read-out: Percentage damage caused to weed species, post-emergence, SOLNI
Procedure, shortened: as §2

| Compound | pest or weed control at 1000 g/ha (Setaria faberi (SETFA) [1]) [%] | pest or weed control at 1000 g/ha [2] [%] | pest or weed control at 1000 g/ha [3] [%] | pest or weed control at 1000 g/ha [4] [%] | pest or weed control at 1000 g/ha [5] [%] | pest or weed control at 1000 g/ha (Solanum nigrum (SOLNI) [6]) [%] | pest or weed control at 1000 g/ha (Setaria faberi (SETFA) [7]) [%] | pest or weed control at 1000 g/ha [8] [%] | pest or weed control at 1000 g/ha [9] [%] | pest or weed control at 1000 g/ha [10] [%] | pest or weed control at 1000 g/ha [11] [%] | pest or weed control at 1000 g/ha (Solanum nigrum (SOLNI) [12]) [%] |
| --- | --- | --- | --- | --- | --- | --- | --- | --- | --- | --- | --- | --- |
| COC(=O)c1nc(C2CC2)cc(NCc2ccco2)c1Cl [Compound 26-83, 3-chloro-6-cyclopropyl-4-[(furan-2-ylmethyl)-amino]-pyridine-2-carboxylic acid methyl ester] | 20 | 40 | 100 | 100 | 20 | 100 | 0 | 0 | 100 | 100 | 0 | 90 |
| COC(=O)c1nc(-c2ccc(Cl)c(OC)c2F)cc(NCc2ccco2)c1Cl [Compound 26-164, 3-chloro-6-(4-chloro-2-fluoro-3-methoxy-phenyl)-4-[(furan-2-ylmethyl)-amino]-pyridine-2-carboxylic acid methyl ester] | 90 | 50 | 100 | 100 | 90 | 100 | 90 | 70 | 90 | 100 | 70 | 100 |
| C=Cc1c(NCc2ccco2)cc(-c2ccc(Cl)c(OC)c2F)nc1C(=O)OC [Compound 26-174, 6-(4-chloro-2-fluoro-3-methoxy-phenyl)-3-ethenyl-4-[(furan-2-ylmethyl)-amino]-pyridine-2-carboxylic acid methyl ester] | 10 | 20 | 90 | 80 | 30 | 90 | 0 | 10 | 50 | 100 | 20 | 100 |
| COC(=O)c1nc(-c2ccc(Cl)c(N(C)C)c2F)cc(NCc2ccco2)c1Cl [Compound 26-245, 3-Chloro-6-(4-chloro-3-dimethylamino-2-fluoro-phenyl)-4-[(furan-2-ylmethyl)-amino]-pyridine-2-carboxylic acid methyl ester] | 30 | 10 | 60 | 100 | 30 | 60 | 60 | 40 | 60 | 100 | 50 | 90 |
| C=Cc1c(NCc2ccco2)cc(-c2ccc(Cl)c(N(C)C)c2F)nc1C(=O)OC [Compound 26-255, 6-(4-Chloro-3-dimethyl-amino-2-fluoro-phenyl)-3-ethenyl-4-[(furan-2-ylmethyl)-amino]-pyridine-2-carboxylic acid methyl ester] | 10 | 10 | 10 | 30 | 20 | 70 | 0 | 0 | 10 | 20 | 0 | 70 |
| CCO/C=C\c1c(NCc2ccco2)cc(-c2ccc(Cl)c(OC)c2F)nc1C(=O)OC [Compound 26-463, (Z)-6-(4-chloro-2-fluoro-3-methoxy-phenyl)-3-(2-ethoxyethenyl)-4-[(furan-2-ylmethyl)-amino]-pyridine-2-carboxylic acid methyl ester] | 10 | 10 | 0 | 0 | 10 | 10 | 0 | 0 | 40 | 20 | 0 | 60 |
| COC(=O)c1nc(Cl)cc(NCc2ccccn2)c1Cl [Compound 31-2, 3,6-Dichloro-4-(pyridin-2-ylmethylamino)-pyridine-2-carboxylic acid methyl ester] | 80 | 70 | 100 | 100 | 60 | 100 | 80 | 50 | 80 | 100 | 20 | 100 |
| C=Cc1c(NCc2ncccc2Cl)cc(Cl)nc1C(=O)OC [Compound 32-12, 6-Chloro-4-[(3-chloro-pyridin-2-ylmethyl)-amino]-3-ethenyl-pyridine-2-carboxylic acid methyl ester] | 80 | 70 | 70 | 100 | 50 | 100 | 60 | 50 | 50 | 100 | 40 | 90 |
| COC(=O)c1nc(Cl)cc(NCc2ncccc2Cl)c1Br [Compound 32-17, 3-Bromo-6-chloro-4-[(3-chloro-pyridin-2-ylmethyl)-amino]-pyridine-2-carboxylic acid methyl ester] | 0 | 10 | 80 | 90 | 0 | 80 | 50 | 20 | 50 | 80 | 20 | 90 |
